This passage reports EC50 results from patent US8574563B2 (Bristol-Myers Squibb Company, priority 2006, dated 2013).

The test system of the first assay is HCV 1b-377-neo replicon cells. Description: HCV replicon assay, HCV 1b-377-neo replicon cells (1b FRET). The class given is cell-based, Hepatitis C virus genotype 1b. The settings on record: HCV 1b-377-neo replicon cells; HCV 1b genotype; read-out: EC50 range against HCV 1b (Table 2, Range). The method, then: An HCV Replion assay was utilized in the present disclosure, and was prepared, conducted and validated as described in commonly owned PCT/US2006/022197 and in O'Boyle et. al. Antimicrob Agents Chemother. 2005 April; 49(4):1346-53.
HCV 1b-377-neo replicon cells were used to test the currently described compound series as well as cells resistant to compound A due to a Y2065H mutation in NS5A (described in application PCT/US2006/022197). The compounds tested were determined to have more than 10-fold less inhibitory activity on cells resistant to compound A than wild-type cells indicating a related mechanism of action between the two compound series. Thus, the compounds of the present disclosure can be effective to inhibit the function of the HCV NS5A protein and are understood to be as effective in combinations as previously described in application PCT/US2006/022197 and commonly owned WO/04014852. Further, the compounds of the present disclosure can be effective against the HCV 1b genotype. It should also be understood that the compounds of the present disclosure can inhibit multiple genotypes of HCV. […] In one embodiment compounds of the present disclosure are active against the 1a, 1b, 2a, 2b, 3a, 4a, and 5a genotypes.
(In general: A replicon is a self-replicating genome or part of one, used to study replication in cells.)
`CN(C)[C@@H](C(=O)N1CCC[C@H]1c1nc(-c2ccc(-c3ccc(-c4cn(C)c([C@@H]5CCCN5C(=O)[C@@H](c5ccccc5)N(C)C)n4)cc3)cc2)cn1C)c1ccccc1` (single isomer, unassigned) [151 isomer 1]: the EC50 (usually the concentration giving half of the maximal effect) lay within 1 to 99 nM.

Take `CN(C)[C@@H](C(=O)N1CCC[C@H]1c1nc(-c2ccc(-c3ccc(-c4cn(C)c([C@@H]5CCCN5C(=O)[C@@H](c5ccccc5)N(C)C)n4)cc3)cc2)cn1C)c1ccccc1` (single isomer, unassigned) [151 isomer 2]: the EC50 lay in the range of 100 to 999 nM.

For `O=C(OCc1ccccc1)N1CCN(C(C(=O)N2CCC[C@H]2c2ncc(-c3ccc(-c4ccc(-c5c[nH]c([C@@H]6CCCN6C(=O)[C@H]6CCCO6)n5)cc4)cc3)[nH]2)c2ccccc2)CC1` (single isomer, unassigned) [Example 103-5], the EC50 lay in the range of 0.001 to 0.999 nM.

`O=C(OCc1ccccc1)N1CCN(C(C(=O)N2CCC[C@H]2c2ncc(-c3ccc(-c4ccc(-c5c[nH]c([C@@H]6CCCN6C(=O)[C@H]6CCCO6)n5)cc4)cc3)[nH]2)c2ccccc2)CC1` (single isomer, unassigned) [Example 103-6]: the EC50 fell in the range of 1 to 99 nM.

The assay is the same for the next values; noted with them: Hepatitis C virus, HCV 1b-377-neo replicon cells; HCV 1b genotype; read-out: EC50 range against HCV 1b (Table 2, Range).
Regarding `COC(=O)N[C@H](C(=O)N1CCCC1c1ncc(-c2ccc(-c3ccc(-c4cnc([C@]5(C)CCCN5C(=O)[C@@H](NC(=O)OC)[C@@H](C)OC)[nH]4)cc3)cc2)[nH]1)[C@@H](C)OC` (stereo partly shown), the EC50 was in the range of 0.001 to 0.999 nM.

For the compound `COC(=O)N[C@H](C(=O)N1CCC[C@H]1c1ncc(-c2ccc(-c3ccc(-c4cnc([C@@H]5CCCN5C(=O)[C@@H](Nc5n[nH]c(N)n5)C(C)C)[nH]4)cc3)cc2)[nH]1)C(C)C`, the EC50 lay in the range of 0.001 to 0.999 nM.

Take `CCN(CC)[C@@H](C(=O)N1CCC[C@H]1c1ncc(-c2ccc(-c3ccc(-c4cnc([C@@H]5CC(F)(F)CN5C(=O)[C@@H](c5ccccc5)N(CC)CC)[nH]4)cc3)cc2)[nH]1)c1ccccc1` (mixture of isomers) [OL-13, rac-(1R)-2-((2S)-2-(4-(4′-(2-((2S)-1-((2R)-2-(diethylamino)-2-phenylacetyl)-4,4-difluoro-2-pyrrolidinyl)-1H-imidazol-4-yl)-4-biphenylyl)-1H-imidazol-2-yl)-1-pyrrolidinyl)-N,N-diethyl-2-oxo-1-phenylethanamine]: the EC50 was in the range of 0.001 to 0.999 nM.

As to `CN(C)C(C(=O)N1CCC[C@H]1c1nc(-c2ccc(-c3ccc(-c4cnc([C@@H]5CC6CCCCC6N5C(=O)[C@@H](c5ccccc5)N(C)C)[nH]4)cc3)cc2)c[nH]1)c1ccccc1` (relative stereo) [Example F7, rel-(1R)-2-((2S)-2-(4-(4′-(2-((2S)-1-((2R)-2-(dimethylamino)-2-phenylacetyl)octahydro-1H-indol-2-yl)-1H-imidazol-5-yl)-4-biphenylyl)-1H-imidazol-2-yl)-1-pyrrolidinyl)-N,N-dimethyl-2-oxo-1-phenylethanamine], the EC50 is 0.001 to 0.999 nM.

As for `COC(=O)N[C@@H](C(=O)N1CCC[C@H]1c1nc(-c2ccc(-c3ccc(-c4cnc([C@@H]5CC6CCCCC6N5C(=O)[C@H](NC(=O)OC)c5ccccc5)[nH]4)cc3)cc2)c[nH]1)c1ccccc1` (relative stereo) [Example F8, methyl rel-((1R)-2-((2S)-2-(4-(4′-(2-((2S)-1-((2R)-2-((methoxycarbonyl)amino)-2-phenylacetyl)octahydro-1H-indol-2-yl)-1H-imidazol-5-yl)-4-biphenylyl)-1H-imidazol-2-yl)-1-pyrrolidinyl)-2-oxo-1-phenylethyl)carbamate], the EC50 lay in the range of 0.001 to 0.999 nM.

For `CC(=O)OC(C(=O)N1CCC[C@H]1c1ncc(-c2ccc(-c3ccc(-c4cnc([C@@H]5CCCN5C(=O)[C@@H](c5ccccc5)N5CCCCC5)[nH]4)cc3)cc2)[nH]1)c1ccccc1` (stereo in doubt) [Example 107-1, (1S)-2-oxo-1-phenyl-2-((2S)-2-(5-(4′-(2-((2S)-1-((2R)-2-phenyl-2-(1-piperidinyl)acetyl)-2-pyrrolidinyl)-1H-imidazol-5-yl)-4-biphenylyl)-1H-imidazol-2-yl)-1-pyrrolidinyl) ethyl acetate], the EC50 fell in the range of 0.001 to 0.999 nM.

In the case of `CC(=O)OC(C(=O)N1CCC[C@H]1c1ncc(-c2ccc(-c3ccc(-c4cnc([C@@H]5CCCN5C(=O)[C@@H](c5ccccc5)N5CCCCC5)[nH]4)cc3)cc2)[nH]1)c1ccccc1` (stereo in doubt) [Example 107-21, (1R)-2-oxo-1-phenyl-2-((2S)-2-(5-(4′-(2-((2S)-1-((2R)-2-phenyl-2-(1-piperidinyl)acetyl)-2-pyrrolidinyl)-1H-imidazol-5-yl)-4-biphenylyl)-1H-imidazol-2-yl)-1-pyrrolidinyl)ethyl acetate], the EC50 was 0.001 to 0.999 nM.

As to `CC(=O)OC(C(=O)N1CCC[C@H]1c1ncc(-c2ccc(-c3ccc(-c4cnc([C@@H]5CCCN5C(=O)[C@@H](c5ccccc5F)N(C)C)[nH]4)cc3)cc2)[nH]1)c1ccccc1` (stereo in doubt) [Example 107-33, (1R)-2-((2S)-2-(5-(4′-(2-((2S)-1-((2R)-2-(dimethylamino)-2-(2-fluorophenyl)acetyl)-2-pyrrolidinyl)-1H-imidazol-5-yl)-4-biphenylyl)-1H-imidazol-2-yl)-1-pyrrolidinyl)-2-oxo-1-phenylethyl acetate], the EC50 lay within 0.001 to 0.999 nM.

`COC(=O)NC(C(=O)N1CCC[C@H]1c1ncc(-c2ccc(-c3ccc(-c4cnc([C@@H]5CCCN5C(=O)[C@@H](NC(=O)OC)C(C)C)[nH]4)cc3)cc2F)[nH]1)[C@@H](C)OC` (stereo in doubt) [Example D42, methyl ((1S,2R)-1-(((2S)-2-(5-(3-fluoro-4′-(2-((2S)-1-(N-(methoxycarbonyl)-L-valyl)-2-pyrrolidinyl)-1H-imidazol-5-yl)-4-biphenylyl)-1H-imidazol-2-yl)-1-pyrrolidinyl)carbonyl)-2-methoxypropyl) carbamate]: the EC50 lay within 0.001 to 0.999 nM.

As to `COC(=O)N[C@H](C(=O)N1CCC[C@H]1c1ncc(-c2ccc(-c3ccc(-c4cnc([C@@H]5CCCN5C(=O)[C@@H](NC(=O)OC)C(C)OC)[nH]4)c(F)c3)cc2F)[nH]1)C(C)C` (stereo in doubt) [Example D56, methyl ((1S,2R)-1-(((2S)-2-(5-(3,3′-difluoro-4′-(2-((2S)-1-(N-(methoxycarbonyl)-L-valyl)-2-pyrrolidinyl)-1H-imidazol-5-yl)-4-biphenylyl)-1H-imidazol-2-yl)-1-pyrrolidinyl)carbonyl)-2-methoxypropyl) carbamate], the EC50 lay in the range of 0.001 to 0.999 nM.

Take `COC(=O)N[C@H](C(=O)N1CCC[C@H]1c1ncc(-c2ccc(-c3ccc(-c4nc([C@@H]5CCCN5C(=O)[C@@H](NC(=O)OC)[C@@H](C)OC)[nH]c4C)cc3)cc2)[nH]1)C(C)OC` (stereo in doubt) [Example E5f, methyl ((1S,2R)-2-methoxy-1-(((2S)-2-(4-(4′-(2-((2S)-1-(N-(methoxycarbonyl)-O-methyl-L-threonyl)-2-pyrrolidinyl)-4-methyl-1H-imidazol-5-yl)-4-biphenylyl)-1H-imidazol-2-yl)-1-pyrrolidinyl)carbonyl)propyl)carbamate]: the 50% effective concentration (EC50) is 0.001 to 0.999 nM.

For `COC(=O)N[C@H](C(=O)N1CCC[C@H]1c1nc(C)c(-c2ccc(-c3ccc(-c4nc([C@@H]5CCCN5C(=O)[C@@H](NC(=O)OC)[C@@H](C)OC)[nH]c4C)cc3)cc2)[nH]1)C(C)OC` (stereo in doubt) [Example E5m, methyl ((1S,2R)-2-methoxy-1-(((2S)-2-(4-(4′-(2-((2S)-1-(N-(methoxycarbonyl)-O-methyl-L-threonyl)-2-pyrrolidinyl)-5-methyl-1H-imidazol-4-yl)-4-biphenylyl)-5-methyl-1H-imidazol-2-yl)-1-pyrrolidinyl)carbonyl)propyl)carbamate], the concentration for a half-maximal effect (EC50) was in the range of 0.001 to 0.999 nM.

Turning to `CCN(CC)C(C)C(=O)N1CCC[C@H]1c1nc(C(F)(F)F)c(-c2ccc(-c3ncc(-c4cnc([C@@H]5CCCN5C(=O)[C@@H](C)N(CC)CC)[nH]4)cn3)cc2)[nH]1` (stereo in doubt) [Example J51, (2R)-1-((2S)-2-(5-(4-(5-(2-((2S)-1-((2R)-2-(diethylamino)propanoyl)-2-pyrrolidinyl)-1H-imidazol-5-yl)-2-pyrimidinyl)phenyl)-4-(trifluoromethyl)-1H-imidazol-2-yl)-1-pyrrolidinyl)-N,N-diethyl-1-oxo-2-propanamine], the EC50 was 1 to 99 nM.

`CC(=O)N1[C@@H](C)CC[C@H]1c1ncc(-c2ccc(-c3ccc(-c4cnc([C@@H]5CC[C@H](C)N5C(C)=O)[nH]4)cc3)cc2)[nH]1` (stereo in doubt) [Example M162, 2-((2S,5S)-1-acetyl-5-methyl-2-pyrrolidinyl)-4-(4′-(2-((2S,5S)-1-acetyl-5-methyl-2-pyrrolidinyl)-1H-imidazol-5-yl)-4-biphenylyl)-1H-imidazole]: the EC50 lay in the range of 1 to 99 nM.

As to `CCN(CC)[C@@H](C(=O)N1CCC[C@H]1c1ncc(-c2ccc(-c3ccc(-c4cnc([C@@H]5CCCN5C(=O)CC(Cc5ccccc5F)NC(=O)OC)[nH]4)cc3)cc2)[nH]1)c1ccccc1` (stereo in doubt) [cj-59, methyl ((1S)-3-((2S)-2-(5-(4′-(2-((2S)-1-((2R)-2-(diethylamino)-2-phenylacetyl)-2-pyrrolidinyl)-1H-imidazol-5-yl)-4-biphenylyl)-1H-imidazol-2-yl)-1-pyrrolidinyl)-1-(2-fluorobenzyl)-3-oxopropyl)carbamate], the EC50 is 0.001 to 0.999 nM.
